Earlier results in US20220056154A1, “Bispecific Antibody Compositions and Methods for Treating COVID-19” (priority 2020, published 2022).

Molecular target: hACE2 (Homo sapiens, UniProt Q9BYF1)
Conditions: 10 μM lisinopril, 10 μM captopril, 10 μM enalaprilat, 100 μM benzyl succinate, 10 mM EDTA; 100 μM angiotensin II; 37° C., 2 hours

Sequence of hACE2 (Q9BYF1 18-805): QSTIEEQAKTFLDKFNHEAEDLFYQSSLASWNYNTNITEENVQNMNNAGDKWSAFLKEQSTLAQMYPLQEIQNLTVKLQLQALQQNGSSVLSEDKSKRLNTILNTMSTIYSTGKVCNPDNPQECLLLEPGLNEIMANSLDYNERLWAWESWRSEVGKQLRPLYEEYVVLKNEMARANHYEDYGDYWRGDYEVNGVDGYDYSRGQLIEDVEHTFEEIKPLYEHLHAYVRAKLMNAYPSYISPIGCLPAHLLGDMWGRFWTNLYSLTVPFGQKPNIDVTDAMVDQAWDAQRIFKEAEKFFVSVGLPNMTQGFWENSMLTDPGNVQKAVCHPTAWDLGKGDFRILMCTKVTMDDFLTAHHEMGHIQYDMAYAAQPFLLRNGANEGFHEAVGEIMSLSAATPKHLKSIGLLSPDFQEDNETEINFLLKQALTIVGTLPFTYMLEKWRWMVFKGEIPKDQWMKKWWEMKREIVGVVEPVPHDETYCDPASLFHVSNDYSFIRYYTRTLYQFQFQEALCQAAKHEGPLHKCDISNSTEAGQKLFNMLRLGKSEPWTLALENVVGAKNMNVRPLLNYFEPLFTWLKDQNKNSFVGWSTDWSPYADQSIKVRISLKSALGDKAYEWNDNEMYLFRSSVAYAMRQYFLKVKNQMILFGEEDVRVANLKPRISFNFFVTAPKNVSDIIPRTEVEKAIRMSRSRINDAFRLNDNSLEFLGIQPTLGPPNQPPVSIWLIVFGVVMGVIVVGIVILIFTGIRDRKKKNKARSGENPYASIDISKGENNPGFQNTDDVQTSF

| SMILES | inhibition of hACE2 activity (angiotensin II cleavage) |
| --- | --- |
| O=C(O)CN(CCN(CC(=O)O)CC(=O)O)CC(=O)O [EDTA] | inhibits hACE2 activity |
| O=C(O)CC(Cc1ccccc1)C(=O)O (centres unmarked) [benzyl succinate] | none of lisinopril, captopril, enalaprilat, and benzyl succinate (a carboxypeptidase A inhibitor) inhibits hACE2 activity |
